Assay [1] relates to intracellular calcium concentration. Put plainly: Intracellular calcium ion concentration with calcium probe Fluo4-AM (Example 5). Type of assay: cell-based. The settings on record: cariporide 100 μM, empagliflozin 50 μM, menthol 200 μM, combination 50 μM + 200 μM. From the text: Intracellular calcium overload is an important factor in the transition of myocardial cells from reversible to irreversible damage. Intracellular calcium overload can be seen in a variety of cardiac pathological states, such as cardiac remodeling, myocardial ischemia-reperfusion injury, viral myocarditis, dilated cardiomyopathy, arrhythmias, and congestive heart failure. […] Empagliflozin can act on the sodium-hydrogen exchanger 1 (NHE1) on the myocardial cell membrane. When myocardial ischemia occurs, myocardial cell energy metabolism is impaired, and myocardial cells switch from fatty acid metabolism to sugar-free glycolysis, producing a large amount of lactic acid, which reduces the intracellular pH. As a regulatory protein for cell pH homeostasis, NHE1 can transport H^+ out of the cell by exchanging extracellular sodium ions, resulting in an increase in the intracellular sodium ion concentration. […] When mitochondrial function is impaired, the release of ROS increases, and ROS can further stimulate L-type calcium channels, promoting Ca^2+ influx, creating a vicious cycle. Empagliflozin inhibits the activity of NHE1 and can indirectly reduce the intracellular calcium ion concentration. Menthol, as an L-type calcium channel blocker, can synergistically reduce the intracellular calcium ion concentration with empagliflozin, playing a synergistic role. In order to verify this synergistic mechanism, the intracellular calcium ion concentration was detected using the calcium ion probe Fluo4-AM.
The experiment was divided into 5 groups, including control group (no drug group), cariporide group (positive control group, 100 μM), EMPA-50 (empagliflozin, 50 μM), M-200 (menthol, 200 μM), and E50+M200 (combination of 50 μM empagliflozin and 200 μM menthol).
• (1) Take an appropriate amount of Fluo4-AM stock solution (2 mM, BeyoTime, S1060) and dilute it to a 10 μM working solution with HBSS; • (2) For the cells to be tested (covering the bottom of the dish), remove the culture medium and wash with HBSS three times; • (3) Add 25 μL of Fluo4-AM working solution to each well, and then add 25 μL of compound solution to each well; • (4) Incubate at 37° C. for 30 min for fluorescent probe loading; • (5) Wash three times with HBSS, and add 100 μL of HBSS containing 10 mM CaCl2) to each well. Detect quantitatively the fluorescence of Fluo4-AM using a multifunctional fluorescence microplate reader (excitation wavelength 488 nm, emission wavelength 520 nm) to determine the changes in intracellular calcium ions.
Since empagliflozin indirectly affects intracellular calcium concentration by inhibiting NHE1, the intracellular environment was made acidic by using ammonium chloride solution to simulate the environment during myocardial ischemia, and the effect of the administered composition on intracellular calcium ions was tested. The NHE1 inhibitor cariporide was used as a positive control. The above step (3) was changed to add 25 μL of Fluo4-AM working solution to each well, mix the test compound with 80 mM NH4Cl solution at a 1:1 ratio, and then add 25 μL mixed solution of the compound and NH4Cl to each well (the final concentration of NH4Cl was 20 mM), and the remaining steps were the same as above.

For assay [2], the system named is Rat cardiomyocytes (H9c2). The experiment in a line: GD-induced myocardial cell damage model, CCK-8, SGLT2 inhibitors with L-menthol (Example 9). The settings on record: single drugs: SGLT2 inhibitor 50 μM or menthol 200 μM; GD 36-48 h; untreated group 54.7%. Type of assay: cell-based.
Protocol: In this example, the protective effect of the drug composition on myocardial cells was evaluated by using a GD-induced myocardial cell damage model. […] Rat cardiomyocytes (H9c2) were purchased from the Chinese Academy of Sciences Stem Cell Bank. The cardiomyocytes were cultured in high-glucose DMEM medium (Gibco, 11995-065) containing 10% fetal bovine serum and 1% penicillin/streptomycin, and incubated in a 37° C., 5% CO2 incubator. […] When the cells reached confluence, the DMEM medium was removed, and the cells were washed once with PBS. […] The synergistic coefficient was calculated using the Zero interaction dose model, with the formula: CI=(EAB−EA*EB)/(EA+EB−EA*EB), wherein CI is the synergistic effect index, EAB is the efficacy index of the combination of drugs, and EA and EB are the efficacy indices of the individual drugs, respectively.

As for `CC(C)c1ccc(C(=O)NC(=N)N)cc1S(C)(=O)=O` [cariporide], the “effect on intracellular calcium concentration (Fluo4-AM fluorescence)” value is given as “significantly reduce intracellular calcium concentration” in assay [1] (NH4Cl present (20 mM, acidic intracellular conditions)) and “almost no effect” in assay [1] (absence of NH4Cl).
For the molecule `CCOc1ccc(Cc2cc([C@@H]3O[C@H](CO)[C@@H](O)[C@H](O)[C@H]3O)ccc2Cl)cc1` [dapagliflozin], in assay [2], the cell survival rate was 58.9%.
`CCOc1ccc(Cc2cc([C@]34OC[C@](CO)(O3)[C@@H](O)[C@H](O)[C@H]4O)ccc2Cl)cc1` [ertugliflozin] showed a cell survival rate in assay [2] of 58.6%.
canagliflozin showed a cell survival rate in assay [2] of 60.2%.

For the origin of these results see patent US20250360091A1, “COMBINATION OF SGLT2 INHIBITOR AND MENTHOL AND USE THEREOF IN TREATMENT OF HEART DISEASE” (EAST CHINA UNIVERSITY OF SCIENCE AND TECHNOLOGY, priority 2023, published 2025).
